Results reported in patent US20230000808A1, “COMPOSITIONS AND METHODS EXCLUDING OR WITH REDUCED GLUTAMINE FOR THE TREATMENT OF HEMOGLOBINOPATHIES AND THALASSEMIAS” (AXCELLA HEALTH INC., priority 2019, published 2023).

Test system: sICAM-1
Assay: Soluble ICAM-1 in HLMVEC/TNF-α model (Luminex)
Format: cell-based, human
Settings: for sICAM-1 expression relative to TNF Control, Mean % Change: 20×HMDB amino acids, 24 h co-treatment
Protocol: Cells were incubated at 37° C., 5% CO2 in a humidified incubator. Cells were passaged at least 1-2 times in the complete growth medium every 2-3 days until ready to plate for cell culture studies. Once ready for experiment, HLMVECs were seeded at a density of 6K cells per well of the 96 well optical microplates (Thermofisher) in the complete growth medium described above and the plated cells were incubated for 24 hours at 37° C. in a humidified incubator with 5% CO2. […] The values are published in the Human Metabolome Database (Wishart D S, et al., Nucleic Acids Res. 2007 January; 35:D521-6) which is hereby incorporated by reference in its entirety. The medium was also supplemented with growth factors & antibiotics from EGM2-MV kit (Lonza) except the kit-provided FBS which was substituted with dialyzed FBS (Hyclone). […]). […] were run in duplicate and data was normalized to corresponding TNF-α control for respective treatments as specified in the tables. Mean percent change in level of adhesion markers are reported herein. Statistical analysis was done using two sample t-test.

For NC(=O)CC[C@H](N)C(=O)O [Glutamine, L-glutamine], the “sICAM-1 levels” value (0.5 ng/mL TNF-α (low), 20×HMDB, 24 h) was “failed to reduce”, the “sICAM-1 expression relative to TNF Control, Mean % Change” value (TNF Conc 0.5 ng/mL) was 5.573% and the “sICAM-1 expression relative to TNF Control, Mean % Change” value (TNF Conc 25 ng/mL) was 142.4986%. For the same compound, the “sICAM-1 level increased by” value (TNF-α 25 ng/mL, 20×HMDB, 24 h) was 142%.
